Data as given in EP2556819A1, “EXTERNAL SKIN PREPARATION” (Kao Corporation, priority 2010, dated 2011).
Converted amounts (≈) assume the structure as drawn. Values belong to the compound of their own block, whether it stands above or below them.

Tests used:
[1] = tested on: cultured skin model containing melanin cells (MEL-300, Asian Doner, manufactured by Kurabo Industries, Ltd.); experiment: Melanin production inhibition test using three-dimensional cultured skin model; format: cell-based; details: 336 h, cultured for 14 days, read-out: Melanin production inhibition rate (% with respect to control); for inhibition at 100 µM: Addition concentration 100 µM; for inhibition at 50 µM: Addition concentration 50 µM
From the text: 4-(3-alkoxybutyl)phenol obtained in the above-mentioned Production Example 1 was subjected to the below-mentioned melanin production inhibition test. Note here that as a comparison target, 4-(3-hydroxybutyl)phenol in which an alkyl group had been removed from 4-(3-alkoxybutyl)phenol -and 4-(3-acetoxybutyl)phenol and 4-(3-propanoyloxybutyl)phenol as an ester compound having the same number of carbon atoms, were used.
To a skin model cup of a cultured skin model containing melanin cells (MEL-300, Asian Doner, manufactured by Kurabo Industries, Ltd.), 0.2 mL of a solution of a test substance was placed, and the skin model was cultured for 14 days by using an LLMM medium attached to the product. During the culture period, the medium was replaced by a new medium every three days. After culture for 14 days, the skin model was washed, the survival rate was measured by fluorescence measurement (Excitation: 560 nm, Emission: 590 nm) using an AlamarBlue reagent (manufactured by Molecular Probe), and the amount of melanin synthesized in each skin model was measured. The amount of melanin synthesized was determined by the colorimetric determination (405 nm) of a solution obtained by immersing each skin model in PBS so as to separate a cell layer, then washing it with PBS and hydrous ethanol, adding 0.2 mL of a 2N NaOH aqueous solution, and extracting melanin at 100°C for three hours.

B16 melanoma cells = experiment: in vitro melanin production inhibition test; format: cell-based; details: Mus musculus, concentration inhibiting production of melanin by 50%, cultured for 72 hours, theophylline 2 mmol/L, melanin per unit amount of protein
Method: The 4-(3-alkoxybutyl)phenol compound obtained in the above-mentioned Production Example 1 was subjected to the following melanin production inhibition test. Note here that as a comparison target, arbutin, ascorbic acid, kojic acid, and linoleic acid, which are known to have a melanin production-inhibitory action, were used. B16 melanoma cells were seeded in a minimum essential medium (MEM) supplemented with 10 vol% fetal bovine serum in 12-well plates at 1 × 10^4 cells/well, and pre-cultured for 24 hours by a usual method. After pre-culture, the medium was replaced to a test medium to which each evaluation sample had been added at various concentrations, and the medium was cultured for 72 hours. As the test medium, the above-mentioned pre-culture medium to which theophylline had been added at 2 mmol/L was used. After culture, cells were collected and dissolved in 1 mol/L of an aqueous solution of sodium hydroxide containing 10 vol% dimethyl sulfoxide, and an OD475 value of the solution was measured and the value was defined as an index of the amount of melanin. Furthermore, at the same time, by using Coomasie Plus Protein Assay Kit (manufactured by PIERCE), the total amount of protein in the solution was measured, and the amount of melanin per unit amount of protein was calculated. Based on the amount of melanin per unit amount of protein, the melanin production inhibition rate was calculated per each addition concentration from the following formula. Melanin production inhibition rate (%) = (A-B)/A [formula] (wherein A denotes the amount of melanin per unit amount of protein when no sample was added, and B denotes the amount of melanin per unit amount of protein when a sample was added). Next, a graph in which the concentration of the added sample is plotted on the axis of abscissas, and a melanin production inhibition rate is plotted in the axis of ordinates was formed, and concentration at which each evaluation sample inhibits the production of melanin by 50% (IC50) was determined from this graph.

Solubility test = format: physicochemical; details: thermodynamic from solid, 0.1 g compound + 1 mL solvent, heated at 40°C for 10 min., returned to room temperature, visual observation
Method: By using 4-(3-ethoxybutyl)phenol obtained in the above-mentioned Production Example 1, the following solubility test was carried out. Note here that as a comparison target, 4-(3-hydroxybuty)phenol was used.
To 0.1 g of each compound, 1 mL of each solvent described in the following table 1 was added. The mixture was heated at 40°C for 10 min., and then the temperature was returned to room temperature. The solubility in the solvent at this time was evaluated by visual observation. The evaluation was carried out in which a case where it was dissolved was evaluated as "a" and a case where insolubles were left was evaluated as "b."

[2] = oil or lipid, Glyceryl tri(2-ethylhexanoate)
[3] = oil or lipid, Isocetyl myristate
[4] = oil or lipid, Methylphenyl polysiloxane (Silicon FZ209)
[5] = oil or lipid, Octyldodecyl myristate
[6] = organic solvent or mixture, Dipropylene glycol
[7] = organic solvent or mixture, Ethanol

SMILES: CC(=O)OC(C)CCc1ccc(O)cc1 (stereo not drawn) [4-(3-Acetoxybutyl)phenol, 4-(3-acetoxybutyl)phenol, reference compound]
inhibition at 100 µM [1]: 26.7%

SMILES: CCC(=O)OC(C)CCc1ccc(O)cc1 (stereo not drawn) [4-(3-Propanoyloxybutyl)phenol, 4-(3-propanoyloxybutyl)phenol, reference compound]
inhibition at 50 µM [1]: 18.4%

SMILES: O=C1O[C@H]([C@@H](O)CO)C(O)=C1O [Ascorbic acid, ascorbic acid, reference compound]
IC50 (B16 melanoma cells): 60 µg/mL (≈ 341 µM)

SMILES: O=c1cc(CO)occ1O [Kojic acid, kojic acid, reference compound]
IC50 (B16 melanoma cells): 180 µg/mL (≈ 1270 µM)

SMILES: CCCCC/C=C\C/C=C\CCCCCCCC(=O)O [Linoleic acid, linoleic acid, reference compound]
IC50 (B16 melanoma cells): 4 µg/mL (≈ 14.3 µM)

Continued, in another order:

IC50 (B16 melanoma cells): 2 µg/mL (≈ 10.3 µM)
solubility at 10 min (Solubility test; [2]): > 100 mg/mL
solubility at 10 min (Solubility test; [3]): > 100 mg/mL
solubility at 10 min (Solubility test; [4]): > 100 mg/mL
solubility at 10 min (Solubility test; [5]): > 100 mg/mL
solubility at 10 min (Solubility test; [6]): > 100 mg/mL
solubility at 10 min (Solubility test; [7]): > 100 mg/mL
SMILES: CCOC(C)CCc1ccc(O)cc1 (stereo not drawn) [4-(3-Ethoxybutyl)phenol, 4-(3-ethoxybutyl)phenol]
inhibition at 100 µM [1]: 56%

solubility at 10 min (Solubility test; [2]): < 100 mg/mL
solubility at 10 min (Solubility test; [3]): < 100 mg/mL
solubility at 10 min (Solubility test; [4]): < 100 mg/mL
solubility at 10 min (Solubility test; [5]): > 100 mg/mL
solubility at 10 min (Solubility test; [6]): > 100 mg/mL
solubility at 10 min (Solubility test; [7]): > 100 mg/mL
SMILES: CC(O)CCc1ccc(O)cc1 (stereo not drawn) [4-(3-Hydroxybutyl)phenol, 4-(3-hydroxybutyl)phenol, reference compound]
inhibition at 100 µM [1]: 18.6%

IC50 (B16 melanoma cells): 2 µg/mL (≈ 9.6 µM)
SMILES: CC(C)OC(C)CCc1ccc(O)cc1 (stereo not drawn) [4-(3-Isopropoxybutyl)phenol, 4-(3-isopropoxybutyl)phenol]
inhibition at 50 µM [1]: 56.9%

IC50 (B16 melanoma cells): 2 µg/mL (≈ 11.1 µM)
SMILES: COC(C)CCc1ccc(O)cc1 (stereo not drawn) [4-(3-Methoxybutyl)phenol, 4-(3-methoxybutyl)phenol]
inhibition at 100 µM [1]: 55.6%

IC50 (B16 melanoma cells): 2.5 µg/mL (≈ 12 µM)
SMILES: CCCOC(C)CCc1ccc(O)cc1 (stereo not drawn) [4-(3-Propoxybutyl)phenol, 4-(3-propoxybutyl)phenol]
inhibition at 50 µM [1]: 69.5%

IC50 (B16 melanoma cells): 30 µg/mL (≈ 110 µM)
SMILES: OC[C@H]1O[C@@H](Oc2ccc(O)cc2)[C@H](O)[C@@H](O)[C@@H]1O [Arbutin, arbutin, reference compound]
